Experiments:
[1] = system: BV-2 microglial cells (Mus musculus); assay: Antineuroinflammatory activity in mouse BV2 cells assessed as inhibition of LPS-induced nitric oxide production at 50 uM preincubated for 10 mins followed by LPS stimulation for 24 hrs by Griess assay
[2] = Cytotoxicity against […] cells assessed as decrease in cell viability up to 100 uM preincubated for 10 mins followed by LPS stimulation for 24 hrs by MTT assay; format: toxicity, cell-based; conditions: bv-2, 24 h
[3] = Antineuroinflammatory activity in […] of LPS-induced nitric oxide production preincubated for 10 mins followed by LPS stimulation for 24 hrs by Griess assay; format: functional, cell-based; conditions: BV-2

SMILES: C[C@H]1O[C@@H]2OC(=O)[C@]3(C)CC4=C(CO)C5=C(CC(=O)[C@]4(C)[C@H](C1=O)[C@H]23)C(C)(C)OC(=O)C5
- inhibition at 50 µM [1]: < 50%

SMILES: CC(=O)O[C@@H]1c2c3c(cc(O)c2C(=O)OC1C)O[C@@]1(C)[C@@H](O)C[C@H]2C(C)(C)C(=O)C=C[C@]2(C)[C@@H]1C3 (stereo partly drawn)
- inhibition at 50 µM [1]: < 50%

SMILES: COC(=O)[C@]12C(=O)[C@@](C)(O)C(=O)[C@](C)(C[C@H]3C(C)=C4CC(=O)OC(C)(C)C4=CC[C@@]31C)[C@]21CO1
- inhibition at 50 µM [1]: < 50%

SMILES: CC1Cc2c3c(cc(O)c2C(=O)O1)O[C@@]1(C)[C@@H](O)C[C@H]2C(C)(C)C(=O)C=C[C@]2(C)[C@@H]1C3 (stereo partly drawn)
- inhibition at 50 µM [1]: < 50%

SMILES: C[C@@H]1O[C@@H]2OC(=O)[C@]3(C)C[C@@H]4[C@](C)(C(=O)C=C5C(=CC(=O)OC5(C)C)[C@@]45CO5)[C@H](C1=O)[C@H]23 [BERKELEYACETAL C]
- Activity [2]: Non-Toxic
- IC50 [3]: 0.8 µM

SMILES: COc1ccc2c(c1)c(CC(=O)O)c(C)n2C(=O)c1ccc(Cl)cc1 [INDOMETHACIN]
- IC50 [3]: 34.5 µM

SMILES: CC1=C2CC(=O)OC(C)(C)C2=CC[C@@]2(C)[C@H]1C[C@@]1(C)C(=O)[C@@]3(C)O[C@]14COC(=O)[C@@]42C3=O
- inhibition at 50 µM [1]: < 50%

From ChEMBL document CHEMBL3853283, “Nitric Oxide Inhibitory Meroterpenoids from the Fungus Penicillium purpurogenum MHZ 111” (J Nat Prod, 2016)
